From patent US20230181614A1, “ADMINISTRATION OF CITICOLINE TO IMPROVE COGNITIVE PERFORMANCE, ATTENTIONAL PERFORMANCE, AND MOTOR FUNCTION” (KYOWA HAKKO BIO CO., LTD., priority 2014, published 2023)

Experiments:
[1] = test system: Healthy subjects, ages 13-18; assay: Trail Making Test; type: in vivo, human; set-up: Trail Making B V1 (Mean) / Trail Making B V3 (Mean) / Trail Making B-A V1 (Mean) / Trail Making B-A V3 (Mean) / V3-V1 Trail Making B (Mean) / V3-V1 Trail Making B-A (Mean): unit not given here; details: for Trail Making A V1 (Mean) / Trail Making B V1 (Mean) / Trail Making B-A V1 (Mean): Visit 1; for Trail Making A V3 (Mean) / Trail Making B V3 (Mean) / Trail Making B-A V3 (Mean): Visit 3; for V3-V1 Trail Making A (Mean) / V3-V1 Trail Making B (Mean) / V3-V1 Trail Making B-A (Mean): visit difference score V3-V1
Source text: Study participants were screened by telephone prior to study enrollment. Healthy subjects, ages 13-18, with no significant medical conditions and no history of co-morbid psychiatric disorder, current Axis I or II diagnosis, or previous participation in a pharmacotherapeutic trial, were selected. Use of any psychotropic medication or any previous head injury resulting in loss of consciousness for 5 or more minutes were used as exclusion criteria. While no participant met criteria for a neuropsychiatric disorder at enrollment, clinical assessments were still completed throughout the study to evaluate changes in mood state. In addition, self-reports of sleep habits, lifestyle, and exercise routines were also administered at baseline as well as at each study visit to assess changes in health habits during study participation.
Following the completion of Visit 1 assessment, participants were given their 28-day supply of citicoline (250 mg or 500 mg) or placebo, which was randomly assigned. They were instructed to take one capsule a day every day for the next 28 days.
Visit 2 occurred fourteen days after Visit 1. At Visit 2, the remaining study pills were counted and participant dosage calendars were checked to ensure compliance with the protocol. Additional neuropsychological measures and clinical assessments were administered during this visit.
Participants returned for Visit 3 fourteen days later, on the 28th day of their study participation. The pill bottle and the dosage calendar were collected from each participant. Urine and blood were again obtained. Participants also participated in similar clinical and neuropsychological testing and clinical measures that were given during visit 1.
The Trail Making Test is designed to measure visual conceptual and visuomotor tracking, as well as maintenance of cognitive set. On Trial A the participant must draw lines to connect consecutively numbered circles on one work sheet (1-2-3-4 etc.). For Part B they must connect numbered and lettered circles by alternating between the two sequences (i.e., 1-A-2-B etc.). Part B is the more sensitive of the two tests -- particularly to frontal-lobe dysfunction -- as scores on this section are indicative of the participant’s ability to shift sets (numeric to alphabetical order) and process concurrent stimuli. This test was administered on all three visits.

[2] = test system: Healthy subjects, ages 13-18; assay: Monitoring of Side Effects Scale (MOSES); type: in vivo, human; details: for V2 MOSES (Mean): Visit 2; for V3 MOSES (Mean): Visit 3; for MOSES V3-V2 Score (Mean): visit difference score V3-V2; for MOSES difference scores, between groups: visit 1 to visit 3 (so in the source); for MOSES, within-group change: visit 2 to 3
Source text: Study participants were screened by telephone prior to study enrollment. Healthy subjects, ages 13-18, with no significant medical conditions and no history of co-morbid psychiatric disorder, current Axis I or II diagnosis, or previous participation in a pharmacotherapeutic trial, were selected. Use of any psychotropic medication or any previous head injury resulting in loss of consciousness for 5 or more minutes were used as exclusion criteria. While no participant met criteria for a neuropsychiatric disorder at enrollment, clinical assessments were still completed throughout the study to evaluate changes in mood state. In addition, self-reports of sleep habits, lifestyle, and exercise routines were also administered at baseline as well as at each study visit to assess changes in health habits during study participation. Following the completion of Visit 1 assessment, participants were given their 28-day supply of citicoline (250 mg or 500 mg) or placebo, which was randomly assigned. They were instructed to take one capsule a day every day for the next 28 days. Visit 2 occurred fourteen days after Visit 1. At Visit 2, the remaining study pills were counted and participant dosage calendars were checked to ensure compliance with the protocol. Additional neuropsychological measures and clinical assessments were administered during this visit. Participants returned for Visit 3 fourteen days later, on the 28th day of their study participation. The pill bottle and the dosage calendar were collected from each participant. Urine and blood were again obtained. Participants also participated in similar clinical and neuropsychological testing and clinical measures that were given during visit 1. The MOSES is a scale designed to assess common symptoms or adverse events associated with psychopharmacological medications. This scale is divided into nine body areas representing a typical physical examination. The interviewer asks subjects whether they have each symptom on the measure and, if so, asks them to report the level of severity of the symptom on a scale from 0 (not present) to 4 (severe). […]

Q: What does the source list for `C[N+](C)(C)CCOP(=O)(O)OP(=O)([O-])OC[C@H]1O[C@@H](n2ccc(N)nc2=O)[C@H](O)[C@@H]1O` [citicoline, Cytidine 5′-diphosphocholine]?
A: Trail Making A V1 (Mean) ([1]; 250 mg/day group): 11.16; Trail Making B V1 (Mean) ([1]; 250 mg/day group): 29.15; Trail Making B-A V1 (Mean) ([1]; 250 mg/day group): 17.99; Trail Making A V3 (Mean) ([1]; 250 mg/day group): 9.37; Trail Making B V3 (Mean) ([1]; 250 mg/day group): 18.40; Trail Making B-A V3 (Mean) ([1]; 250 mg/day group): 9.00; V3-V1 Trail Making A (Mean) ([1]; 250 mg/day group): -1.80; V3-V1 Trail Making B (Mean) ([1]; 250 mg/day group): -10.75; V3-V1 Trail Making B-A (Mean) ([1]; 250 mg/day group): -8.99; Trail Making A V1 (Mean) ([1]; 500 mg/day group): 12.89; Trail Making B V1 (Mean) ([1]; 500 mg/day group): 28.60; Trail Making B-A V1 (Mean) ([1]; 500 mg/day group): 15.71; Trail Making A V3 (Mean) ([1]; 500 mg/day group): 9.28; Trail Making B V3 (Mean) ([1]; 500 mg/day group): 23.02; Trail Making B-A V3 (Mean) ([1]; 500 mg/day group): 13.73; V3-V1 Trail Making A (Mean) ([1]; 500 mg/day group): -3.60; V3-V1 Trail Making B (Mean) ([1]; 500 mg/day group): -5.58; V3-V1 Trail Making B-A (Mean) ([1]; 500 mg/day group): -1.98; V2 MOSES (Mean) ([2]; 250 mg/day group): 1.30; V3 MOSES (Mean) ([2]; 250 mg/day group): 1.04; MOSES V3-V2 Score (Mean) ([2]; 250 mg/day group): -0.26; MOSES difference scores, between groups ([2]; 250 mg/day vs 500 mg/day, p=0.64): no significant differences; MOSES, between groups ([2]; 250 mg/day vs 500 mg/day, visit 3, p=0.11): no significant difference; MOSES difference scores, between groups ([2]; 250 mg/day vs Placebo, p=0.70): no significant differences; MOSES, between groups ([2]; 250 mg/day vs Placebo, visit 3, p=0.21): no significant difference; MOSES, within-group change ([2]; 250 mg/day, p=0.34): no significant differences; V2 MOSES (Mean) ([2]; 500 mg/day group): 0.81; V3 MOSES (Mean) ([2]; 500 mg/day group): 0.38; MOSES V3-V2 Score (Mean) ([2]; 500 mg/day group): -0.43; MOSES, within-group change ([2]; 500 mg/day, p=0.07): trend toward significant differences; MOSES difference scores, between groups ([2]; Placebo vs 500 mg/day, p=0.30): no significant differences; MOSES, between groups ([2]; Placebo vs 500 mg/day, visit 3, p=0.85): No significant difference; MOSES difference scores, three groups ([2]; p=0.66): no significant differences; MOSES, overall analysis ([2]; three groups, visit 3, p=0.23): no significant differences
